Laboratory results taken from US7045495B2 (Sloan-Kettering Institute for Cancer Research, priority 1996, dated 2006).
Values joined by “and” are separate entries in the source; they are usually repeats but may differ in a detail not shown here. Equal entries are not always repeated.

How the values were obtained:
Format in all cases: cell-based, human
MKN-74 cells [1] = assay: TdT assay with flow cytometry; settings: 24 hours; safingol 50 μM, MMC 5 μg/ml
Procedure: Apoptosis was measured by two different methods: (i) Quantitative fluorescent microscopy (QFM) of nuclear changes induced by apoptosis, as determined by bisbenzimide trihydrochloride (Hoescht-33258) staining of nuclear chromatin (15), and (ii) a terminal deoxynucleotidyl transferase (TdT) assay that labels the 3′-OH ends of DNA fragments produced in apoptotic cells (16). […] MMC was diluted in water. A stock safingol solution was constituted in DMSO and was subsequently diluted at least 1:100 in media for all experiments. […] For QFM determinations, the cells were fixed in 3% paraformaldehyde and incubated at room temperature for 10 minutes. […] Aliquots of the cells (10 μl) were placed on glass slides coated with 3-amino-propyl-triethoxysilane, and duplicate samples of 500 cells each were counted and scored for the incidence of apoptotic chromatin condensation using an Olympus BH-2 fluorescence microscope equipped with a BH2-DM2U2UV Dich. […] Green (d-dUTP labeled DNA strand breaks) and red (PI staining for total DNA content) fluorescence of individual cells were measured on a FACScan flow cytometer (Becton Dickinson, San Jose, Calif.). […] The R1 cursor was set using the control specimen to define normal levels of green fluorescence (i.e., basal levels of apoptosis). Cells with fluorescence above the R, cursor were considered apoptotic. […]

MKN-74 cells [2] = assay: apoptosis by QFM, Hoechst-33258 staining
Procedure: (§1) Apoptosis was measured by two different methods: (i) Quantitative fluorescent microscopy (QFM) of nuclear changes induced by apoptosis, as determined by bisbenzimide trihydrochloride (Hoescht-33258) staining of nuclear chromatin (15), and (ii) a terminal deoxynucleotidyl transferase (TdT) assay that labels the 3′-OH ends of DNA fragments produced in apoptotic cells (16). […] MMC was diluted in water. A stock safingol solution was constituted in DMSO and was subsequently diluted at least 1:100 in media for all experiments. […] For QFM determinations, the cells were fixed in 3% paraformaldehyde and incubated at room temperature for 10 minutes. The fixative was removed and the cells were washed with 1×PBS, resuspended in 20 μl 1×PBS containing only 8 μg/ml of bisbenzimide trihydrochloride (Hoechst #33258), and incubated at room temperature for 15 minutes. Aliquots of the cells (10 μl) were placed on glass slides coated with 3-amino-propyl-triethoxysilane, and duplicate samples of 500 cells each were counted and scored for the incidence of apoptotic chromatin condensation using an Olympus BH-2 fluorescence microscope equipped with a BH2-DM2U2UV Dich. Mirror Cube filter (Olympus, Lake Success, N.Y.). For the TdT assays, the ApopTag Kit (Oncor, Gaithersburg, Md.) was used. This method employs a fluoresceinated antidigoxigenin antibody directed against nucleotides of digoxigenin-11-dUTP (d-dUTP) which are catalytically added to the 3-ends fragmented DNA by TdT. Briefly, 1–2×10^6 cells were washed and fixed with 1% paraformaldehyde. The fixed cells were incubated in a reaction mixture containing TdT and d-dUTP for 30 minutes at 37° C. Stop/wash buffer was added, and the cells were resuspended in 100 μl of fluorescinated anti-digoxigenin antibody for 30 minutes at room temperature. The cells were then washed with 0.1% Triton X-100 and counterstained with propidium iodide (PI) solution. Green (d-dUTP labeled DNA strand breaks) and red (PI staining for total DNA content) fluorescence of individual cells were measured on a FACScan flow cytometer (Becton Dickinson, San Jose, Calif.). The resulting bivariate plots enabled the detection of apoptotic events within the cell cycle. The R1 cursor was set using the control specimen to define normal levels of green fluorescence (i.e., basal levels of apoptosis). Cells with fluorescence above the R, cursor were considered apoptotic. The data from 10,000 cells were collected and analyzed using CellFit and LYSYS software (Becton Dickinson).
Apoptosis was again measured by QFM staining.
(§2) Induction of apoptosis was estimated by counting the frequency of condensed nuclear chromatin with Hoechst-33258 stain in duplicate samples of 400 cells.
For these studies apoptosis was measured by quantitative fluorescent microscopy (QFM) determination with bisbenzimide trihydrochloride stain (Hoescht-33258) for condensed nuclear chromatin characteristic of apoptotic cells.
For QFM determinations 500 cells were counted and scored for the incidence of apoptotic chromatin changes under an Olympus BH-2 fluorescence microscope in duplicate samples, ±SD, using a BH2-DM2U2UV Dich. Mirror Cube filter.
To study this further applicants elected to examine five bis-indolylmaleimides with various potencies against PKC. […] The induction of apoptosis was estimated by counting the frequency of condensed nuclear chromatin with Hoechst-33258 stain in duplicate samples of 400 cells.

SK-GT-5 cells = assay: apoptosis by quantitative fluorescent microscopy (QFM), Hoechst-33258 staining; settings: for percentage of cells undergoing apoptosis (QFM): FIG. 4: safingol 50 μM and/or PMA 1 ng/ml for 1 hour, then MMC 5 μg/ml or no drug 24 hours, MMC alone 24 hours
Procedure: as §1
For the QFM duplicate samples of 500 cells each were counted and scored for the incidence of apoptotic chromatin condensation using an Olympus BH-2 fluorescence microscope.

[3] = system: gastric cancer cells (SK-GT cells); assay: cell proliferation studies with [3H]-thymidine
[4] = system: MDA-MB-468 breast cancer cells; assay: apoptosis by QFM, Hoechst-33258 staining; settings: for percentage of cells undergoing apoptosis (QFM): FIG. 9, safingol 50 μM
Procedure: PRELIMINARY STUDIES. […] Apoptosis was measured by quantitative fluorescent microscopy (QFM) of nuclear changes induced by apoptosis, as determined by bisbenzimide trihydrochloride (Hoescht-33258) staining of condensed nuclear chromatin (24). For the QFM duplicate samples of 500 cells each were counted and scored for the incidence of apoptotic chromatin condensation using an Olympus BH-2 fluorescence microscope.
Applicants also tested the PKC inhibitor UCN-01 (27) which is currently in phase I clinical trial at the NCI. In contrast to safingol, which inhibits PKC by binding to its regulatory domain, UCN-01 inhibits PKC at its catalytic domain. Therefore, assessment of the effect of UCN-01 on inducing apoptosis in combination with MMC on MDA-MB-468 was also performed. The QFM method to quantitate apoptosis was again used. The conditions tested were identical to those described above for safingol except UCN-01 (1 μM) was substituted for safingol in all the conditions.
as §2

cdk2 = cdk2 activity by histone type-I phosphorylation after immunoprecipitation from treated cells; settings: MKN-74 cells; 24 hours; MMC 5.0 μg/ml, safingol 50 μM; FIG. 8
Procedure: (ii) Safingol increases cdk2 activity only when co-administered with chemotherapy: For determination of cdk2 activity MKN-74 cells were treated according to the conditions shown to enhance chemotherapy induced apoptosis: (i) no drug (control) for 24 hours, (ii) Mitomycin-C alone (5.0 μg/ml) for 24 hours, (iii) Safingol alone (50 μM) for 24 hours, (iv) the combination of safingol (50 μM) and Mitomycin-C (MMC, 5.0 μg/ml) for 24 hours. Cdk2 activity was determined by histone type-I phosphorylation, as described (38). For these studies cdk2 was first immunoprecipitated from the cell lysates following treatment under these four conditions. The kinase reaction was allowed to proceed at 30° for 30 minutes in the presence of histone type-I and [^32P]ATP. For each sample a control sample was run under the same conditions, but IgG was used in place of […]. This allowed for detection on non-specific kinase activity which was then subtracted out from the cdk2 activity to determine the absolute radioactive incorporation attributable to cdk2. The samples were transferred to a 10% SDS PAGE gel for analysis. The autoradiographs were analyzed on a phosphoimager for determinations of relative cdk2 activity.

Structure (SMILES): CCCCCCCCCCCCCCC[C@H](O)[C@@H](N)CO [safingol, L-threo-dihydrosphingosine]
- apoptotic cells: green fluorescence above R1 region (TdT assay) (MKN-74 cells [1]): essentially no apoptosis
- potentiation of MMC-induced apoptotic response by addition of safingol (MKN-74 cells [2]; MKN-74): approximately 2 fold
- percentage of cells undergoing apoptosis (QFM) (SK-GT-5 cells): essentially no effect on inducing apoptosis
- potentiation of MMC-induced apoptotic response by addition of safingol (SK-GT-5 cells; SK-GT-5): approximately 2 fold
- highest non-toxic dose (cell proliferation studies) ([3]; SK-GT / SK-GT-5 / gastric cancer cells, 24 hours): 50 µM
- percentage of cells undergoing apoptosis (QFM) ([4]; 24 hours, MMC 5.0 μg/ml): 11%±1
- cdk2 activity (cdk2): decreased cdk2

Structure (SMILES): CO[C@@]12[C@H](COC(N)=O)C3=C(C(=O)C(C)=C(N)C3=O)N1C[C@@H]1N[C@@H]12 [MMC, Mitomycin-C]
- apoptotic cells: green fluorescence above R1 region (TdT assay) (MKN-74 cells [1]): increased green fluorescence
- Percent Apoptosis (MKN-74 cells [2]; 24 h continuous (single drug) or concomitant, flavopiridol 300 nM, MMC 1 μg/ml, paclitaxel 50 μM, carboplatin): 7%±1%
- % APOPTOSIS (MKN-74 cells [2]; 24 hours, FLAVO 300 nM, Taxol 50 μM, MMC 1 μg/ml, single drugs or in combination): 7%
- percent induction of apoptosis, Concomitant (MKN-74 cells [2]; 24 hours, FLAVO 300 nM, Taxol 50 μM, MMC 1 μg/ml, single drugs or together): 7% ± 1%
- induction of apoptosis (condensed chromatin, 400 cells) (MKN-74 cells [2]; 24 hours, PKC inhibitor 1 to 4 μM, MMC 5 μg/ml): 10% ±2%
- percentage of cells undergoing apoptosis (QFM) (MKN-74 cells [2]; 24 hours, RO 32-0432 1 μM, MMC): 16%±2%
- induction of apoptosis (QFM) (MKN-74 cells [2]; 24 hours, safingol 50 μM, UCN-01 10 μM, MMC 5 μg/ml): 26%±5%
- induction of apoptosis (QFM) (MKN-74 cells [2]; FIG. 7, 24 hours, flavopiridol 300 nM, MMC 50 μM (as printed b127)): 7%±1%
- percentage of cells undergoing apoptosis (QFM) (MKN-74 cells [2]; MKN-74 (wild-type p53), 24 hours, safingol 50 μM, MMC 5 μg/ml): 40%
- induction of apoptosis (condensed chromatin, 400 cells) (MKN-74 cells [2]; MKN-74, 24 hours, Flavo 300 nM, MMC 5 μg/ml): 7% ± 1
- percent induction of apoptosis, 6hrs (MKN-74 cells [2]; Ro 2 μM, MMC 1 μg/ml): 1.0%
- percent induction of apoptosis, 12hrs (MKN-74 cells [2]; Ro 2 μM, MMC 1 μg/ml): 0.8%
- percent induction of apoptosis, 24hrs (MKN-74 cells [2]; Ro 2 μM, MMC 1 μg/ml): 5.8%
- percent induction of apoptosis, 48hrs (MKN-74 cells [2]; Ro 2 μM, MMC 1 μg/ml): 27%
- percent induction of apoptosis, 72hrs (MKN-74 cells [2]; Ro 2 μM, MMC 1 μg/ml): 30%
- percentage of cells undergoing apoptosis (QFM) (SK-GT-5 cells): 36%±4
- inhibition of cell proliferation ([3]; MMC 5 μg/ml): < 20% and 20%
- percentage of cells undergoing apoptosis (QFM) ([4]; 24 hours, MMC 5.0 μg/ml): 6%±1
- percentage of cells undergoing apoptosis (QFM) ([4]; 24 hours, MMC […]): 4%±2
- induction of apoptosis (condensed chromatin, 400 cells) ([4]; MDA-MB-468, 24 hours, UCN-01 7.5 to 10 μM, MMC 5 μg/ml): 6% ± 1
- percentage of cells undergoing apoptosis ([4]; MDA-MB-468, flavopiridol, MMC): 10%±2%
- cdk2 activity (cdk2): decreased cdk2
